Literature values, collected in patent US4215038A, “Peptides which inhibit gonadal function” (The Salk Institute for Biological Studies, priority 1978, dated 1980).
Non-standard residues stand in square brackets, D forms with d. pGlu = O=C1CC[C@@H](C(=O)O)N1

System: release of gonadotropins
Conditions: compared with the 6-Gly peptide

## [pGlu]WSY[dA]LRPG-NH2
  potency as an inhibitor for the release of gonadotropins relative to the same peptide with Gly in the 6-position: 3 times
